The species named for experiment [1] is Cavia porcellus. The experiment in a line: Relative activity was measured in vitro with respect to substance P (SP) in guinea pig ileum. Format: functional.
Experiment [2] is filed under the species Rattus norvegicus. In words: Relative activity was measured in vitro with respect to substance P (SP) in rat colon muscularis mucosae. Format: functional, Muscularis mucosa.
The species named for experiment [3] is Cavia porcellus. The experiment in a line: Relative activity was measured in vitro with respect to substance P (SP) in guinea pig ileum at a concentration of 10 uM; Inactive. The experiment is classed as functional.
For experiment [4], the species on record is Rattus norvegicus. In words: Relative activity was measured in vitro with respect to substance P (SP) in rat colon muscularis mucosae at a concentration of 10 uM; Inactive. The following applies: Muscularis mucosa. The experiment is classed as functional.

Active and inactive are the calls of the source. The rule behind the calls is not given here. Where a SMILES comes first, the peptide text is derived from it. [ ]: non-standard residue; d: D form. The star is where a group is joined. Orn = NCCC[C@H](N)C(=O)O; OBn = c1ccc(CO*)cc1

Regarding `CC(C)C[C@H](NC(=O)CNC(=O)[C@H](Cc1ccccc1)NC(=O)[C@H](Cc1ccccc1)NC(=O)[C@@H](N)CCCN)C(=O)N[C@@H](CCC(=O)OCc1ccccc1)C(N)=O` (H-[Orn]FFGLE(OBn)-NH2), the results for the Relative activity in the experiment filed under Cavia porcellus [1] and in the experiment filed under Rattus norvegicus [2] were 0.14 and 0.61, respectively.

Turning to `CC(C)C[C@H](NC(=O)CNC(=O)[C@H](Cc1ccccc1)NC(=O)[C@H](Cc1ccccc1)NC(=O)[C@@H](N)CCCN)C(=O)N[C@@H](CCC(=O)O)C(N)=O` (H-[Orn]FFGLE-NH2), the Relative activity in the experiment filed under Cavia porcellus [1] was 0.00058; in the experiment listed under Rattus norvegicus [2], less than 0.01.

In the case of `CC(C)C[C@H](NC(=O)CNC(=O)[C@H](Cc1ccccc1)NC(=O)[C@H](Cc1ccccc1)NC(=O)[C@@H](N)CCCN)C(=O)N[C@@H](CCCCN)C(N)=O` (H-[Orn]FFGLK-NH2), the Relative activity result in the experiment filed under Cavia porcellus [3] and in the experiment listed under Rattus norvegicus [4] was “inactive” each time.

Consider `CSCC[C@H](NC(=O)[C@H](CC(C)C)NC(=O)CNC(=O)[C@H](Cc1ccccc1)NC(=O)[C@H](Cc1ccccc1)NC(=O)[C@@H](N)CCCN)C(N)=O` (H-[Orn]FFGLM-NH2), for which the Relative activity in the experiment listed under Cavia porcellus [1] is given as 0.39; in the experiment filed under Rattus norvegicus [2], 0.36.

`CC(C)C[C@H](NC(=O)CNC(=O)[C@H](Cc1ccccc1)NC(=O)[C@H](Cc1ccccc1)NC(=O)[C@@H](N)CCCN)C(=O)N[C@@H](CCC(N)=O)C(N)=O` (H-[Orn]FFGLQ-NH2): the Relative activity in the experiment listed under Cavia porcellus [1] is 0.0022; in the experiment filed under Rattus norvegicus [2], less than 0.01.

For H-QFFGLM-NH2, the Relative activity in the experiment filed under Cavia porcellus [1] stood at 0.3; in the experiment listed under Rattus norvegicus [2], 0.076.
